Results from ChEMBL document CHEMBL5365392, “Inhibitors of ABCG2-mediated multidrug resistance: Lead generation through computer-aided drug design” (Eur J Med Chem, 2023).
Values joined by “and” are separate entries in the source; they are usually repeats but may differ in a detail not shown here. Equal values may be shown once.

How the values were obtained:
ABCG2 = biological target: T1, ABCG2 (Homo sapiens, UniProt Q9UNQ0); test: (§1) Inhibition of ABCG2 (unknown origin)-mediated mitoxantrone efflux at 5 uM relative to control; details: probe mitoxantrone
T1 sequence (Q9UNQ0 whole entry): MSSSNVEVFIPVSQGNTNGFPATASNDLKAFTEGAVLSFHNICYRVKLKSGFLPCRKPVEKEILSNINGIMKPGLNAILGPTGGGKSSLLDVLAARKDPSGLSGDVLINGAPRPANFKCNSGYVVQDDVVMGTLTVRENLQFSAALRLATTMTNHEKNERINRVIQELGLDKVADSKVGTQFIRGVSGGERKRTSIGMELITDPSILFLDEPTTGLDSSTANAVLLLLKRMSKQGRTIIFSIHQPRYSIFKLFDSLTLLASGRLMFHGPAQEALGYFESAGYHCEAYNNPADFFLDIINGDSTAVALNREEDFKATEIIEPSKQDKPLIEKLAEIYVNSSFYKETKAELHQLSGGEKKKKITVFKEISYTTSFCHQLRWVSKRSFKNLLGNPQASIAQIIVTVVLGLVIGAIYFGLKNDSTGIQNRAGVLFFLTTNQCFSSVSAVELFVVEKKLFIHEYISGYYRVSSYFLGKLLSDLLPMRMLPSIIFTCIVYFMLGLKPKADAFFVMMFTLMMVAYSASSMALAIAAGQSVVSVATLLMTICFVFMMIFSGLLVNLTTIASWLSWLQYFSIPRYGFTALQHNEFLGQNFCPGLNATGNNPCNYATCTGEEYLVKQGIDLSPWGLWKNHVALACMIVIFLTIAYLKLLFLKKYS

[1] = biological target: T2, Broad substrate specificity ATP-binding cassette transporter ABCG2 (Homo sapiens, UniProt Q9UNQ0); test: Inhibition of ABCG2 (unknown origin)-mediated mitoxantrone efflux
T2 sequence (Q9UNQ0 whole entry): T1 sequence (Q9UNQ0 whole entry)

[2] = biological target: T2, Broad substrate specificity ATP-binding cassette transporter ABCG2; test: as §1; details: 5 µM
[3] = biological target: T2, Broad substrate specificity ATP-binding cassette transporter ABCG2; test: Inhibition of ABCG2 (unknown origin) expressed in HEK293 cells assessed as reduction in mitoxantrone accumulation incubated for 30 mins by flow cytometric method; assay type: cell-based

Row | SMILES | inhibition at 5 µM (ABCG2) | EC50 [1] | inhibition (INH) [2] | EC50 [3]
1 | O=C1CC(c2ccccc2)Cc2c1c1c(n2CCc2ccccc2)-c2ccccc2C1=O (stereo not drawn) | 83% | 490 nM |  | 
2 | O=C(NCc1cn(CCc2c[nH]c3ccccc23)nn1)c1cc(=O)c2c(OCc3ccc(Br)cc3)cccc2o1 | 87% |  |  | 
3 | COc1ccc2c(CCNC(=O)c3cc(=O)c4c(OCc5ccc(Br)cc5)cccc4o3)c[nH]c2c1 | 97% |  |  | 
4 | Cn1cc(CCNC(=O)c2cc(=O)c3c(OCc4ccc(Br)cc4)cccc3o2)c2ccccc21 | 85% |  |  | 
5 | O=c1ccc(=O)c2c1c1c(=O)c3ccccc3c1n2CCCc1ccccc1 | 33% |  |  | 
6 | COc1cccc(CCn2c3c(c4c2-c2ccccc2C4=O)C(=O)CCC3)c1 | 78% | 310 nM |  | 
7 | COc1ccc2[nH]cc(CCN(C)Cc3cc(=O)c4c(OCc5ccc(Br)cc5)cccc4o3)c2c1 |  | 1800 nM | 46% and 75% | 
8 | C=CCOc1ccc(CNCCc2c[nH]c3ccccc23)cc1OCC |  |  |  | 130 nM
9 | O=c1cc(-c2ccccc2)c(=O)c2c1c1c(=O)c3ccccc3c1n2Cc1ccccc1 | 41% |  |  | 
10 | O=c1cc(-c2ccccc2)c(=O)c2c1c1c(=O)c3ccccc3c1n2CCc1ccccc1 | 128% | 430 nM |  | 
11 | O=c1ccc(=O)c2c1c1c(=O)c3ccccc3c1n2CCc1ccccc1 | 18% |  |  | 
12 | CC1CC(=O)c2c3c(n(CCc4ccccc4)c2C1)-c1ccccc1C3=O (stereo not drawn) | 100% | 230 nM |  | 
13 | COc1ccc2[nH]cc(CCNC(=O)c3cc(=O)c4c(OCc5ccc(Br)cc5)cccc4o3)c2c1 | 98% |  |  | 
14 | O=C1CCCc2c1c1c(n2CCCc2ccccc2)-c2ccccc2C1=O | 83% | 790 nM |  | 
15 | CC(C)n1c2c(c3c1-c1ccccc1C3=O)C(=O)C(Cc1ccccc1)(Cc1ccccc1)CC2 | 90% | 610 nM |  | 
16 | CN(CCc1c[nH]c2ccccc12)C(=O)c1cc(=O)c2c(OCc3ccc(Br)cc3)cccc2o1 | 105% |  |  | 
17 | O=C1CC(c2ccccc2)Cc2c1c1c(n2Cc2ccccc2)-c2ccccc2C1=O (stereo not drawn) | 68% | 960 nM |  | 
18 | COc1ccc2c3c([nH]c2c1)[C@H](C=C(C)C)N1C(=O)[C@@H]2CCCN2C(=O)[C@@H]1C3 [FUMITREMORGIN] | 100% | 2000 nM |  | 
19 | COc1ccc2[nH]cc(CCN(C)C(=O)c3cc(=O)c4c(OCc5ccc(Br)cc5)cccc4o3)c2c1 | 101% |  |  | 
20 | O=C1CCCc2c1c1c(n2CCc2ccccc2)-c2ccccc2C1=O | 100% | 430 nM |  | 
21 | CN(CCc1cn(C)c2ccccc12)C(=O)c1cc(=O)c2c(OCc3ccc(Br)cc3)cccc2o1 | 88% |  |  | 
22 | Cc1cc(=O)c2c3c(=O)c4ccccc4c3n(CCc3ccccc3)c2c1=O | 99% | 840 nM |  | 
